Patent US20170280722A1, “COMPOSITIONS AND METHODS FOR CONTROL OF SAND FLIES AND OTHER BLOOD SUCKING INSECTS” (GENESIS LABORATORIES, INC., priority 2010, published 2017)

What was measured:
Assay type in all cases: in vivo
[1] = tested on: P. argentipes first instar larvae; assay: Larval bioassay with feces of fipronil treated B. bengalensis; settings: for Mean ± SEM survival (days) of P. argentipes larvae during exposure to treated feces D-1 / Mean ± SEM survival (days) of P. argentipes larvae during exposure to treated feces D-5 / Mean ± SEM survival (days) of P. argentipes larvae during exposure to treated feces D-10 / Mean ± SEM survival (days) of P. argentipes larvae during exposure to treated feces D-20: B. bengalensis; for Mean ± SEM survival (days) of P. argentipes larvae during exposure to treated feces D-1: feces 1 day post-treatment; for Mean ± SEM survival (days) of P. argentipes larvae during exposure to treated feces D-5: feces 5 days post-treatment; for Mean ± SEM survival (days) of P. argentipes larvae during exposure to treated feces D-10: feces 10 days post-treatment; for Mean ± SEM survival (days) of P. argentipes larvae during exposure to treated feces D-20: feces 20 days post-treatment
Experimental: (§1) The B. bengalensis fipronil study was conducted in two portions. In the first of the two segments, three randomly selected B. bengalensis were offered a fipronil (250 ppm) treated diet at 25 g daily. One rat served as control and was fed an untreated diet. In the second portion of the study, the remaining animals were randomly divided into two groups of two. Two individuals in the first group were offered 25 g of 100 ppm fipronil-treated feed each and two rats in the second group were each offered 25 g of 50 ppm fipronil-treated diet. One rat served as control and was fed an untreated diet.
(§2) Test animals were provided treated feed for two consecutive days. Diets were prepared by utilizing locally available poultry feed treated with technical grade fipronil to predetermined concentrations. Consumption was calculated daily, feed refilled to a predetermined level of 25 g, and feces cleared. At the end of the second day, treated feed was cleared, final consumption weighed, and feed replaced with untreated locally available poultry feed. Feces were collected, noted as day-1 post-treatment and properly stored for use in assays. Observation of test animals continued for twenty days post-treatment, with additional collection of feces for testing conducted 5, 10, and 20 days post-treatment. On days when fecal collection occurred, all newspaper/bedding was replaced at 0800 hours and feces collected at the end of the day for preservation. Collected feces were dried overnight at approximately 40° C., ground into a fine powder with a pestle and mortar and frozen at −20° C. until larval bioassays were initiated.
Larval bioassay jars were prepared using 48 mm, 100 g round Dibbi jars (Pearlpet, Pearl Polymers LTD., New Delhi, India). Jars were prepared by burning three small holes into the bottom of the container with a soldering iron. A thin layer (approximately 5 mm) of plaster of Paris was cast on the bottom and wetted to ensure humidity and softening of the test diet. To simplify mortality counts, the plaster was quartered, and each quadrant numbered one through four, using an ultra fine black marker. The lids of the jars were punctured with 15-20 small holes using a heated 24-gauge hypodermic needle.
Each bioassay jar was loaded with ten one to two day old first instar P. argentipes larvae. Approximately 5 mg treated feces were sprinkled evenly over the plaster. Larval bioassay samples were maintained in a controlled environment at approximately 24° C. with relative humidity maintained at approximately 80% through daily moistening of paper towels underneath the jars. Any observed mold or mites were removed during each day's observation. Each bioassay group included one control jar with larvae provided standard larval food consisting of rabbit feed, rabbit pellets, and dried chicken blood which were mixed, dried, composted, and crushed. Mortality counts of larvae were conducted every 24 hours post-exposure until 100% mortality or pupation was observed. Larvae were considered dead if no physical response was observed within 15 seconds of light stimulation with a blunt probe.

adult P. argentipes = assay: Adult sand fly bioassay, bloodfeeding on fipronil treated B. bengalensis; settings: for Time after 1 hour exposure to 100% mortality of adult P. argentipes: bloodfeeding 20 days after treatment; for Adult sand fly mortality: across treatment groups
Experimental: as §1, §2
Adult sand fly bioassays were conducted 1, 5, 10 and 20 days post feed-through treatment of B. bengalensis. B. bengalensis were anesthetized with 15 units of ketamine (KetaJet 50, SterFil Laboratories Pvt. Ltd., Ankleshwar, India) via intramuscular injection. The belly of each rat was shaved using an electric razor and a mesh covered plastic capsule (20 mm diameter, 25 mm height) containing 20 adult female and 5 adult male P. argentipes was affixed to the shaved area with medical tape. The capsules had about 10 small holes burned into the top with a heated 24 gauge needle. Capsules remained in place for one hour, covered with a light cloth to maintain warmth and reduce light. At the end of one hour, the capsules were removed and observations for mortality conducted immediately, at 12 hours post-feeding, and every 24 hours thereafter for up to 5 days post-exposure. Partially fed sand flies were included in analyses as “bloodfed” specimens. Unfed sand flies were removed, and bloodfed sand flies were observed collectively by treatment group.

[2] = Cattle dosing, observation for adverse effects; settings: 0.5, 1.0, 2.0, and 4.0 mg/kg body weight, single oral dose
Experimental: The test substance was given to the cattle orally as a single application. The oral treatment was by hand. Because the oral treatment was delivered in capsule form the dosage was very precise.
The observation period can be extended, if necessary based on drug persistence data and residue analysis. The first day of dose application was designated as day 0.
The four dose levels of fipronil for the treatment groups used in this study were as follows: 0.5, 1.0, 2.0 and 4.0 mg/kg. These were weighed with an analytical balance to the nearest 0.01 g and presented in gelatin capsules.
Body weights were recorded individually for all animals during randomization, at the beginning of each week (Monday) during the study period, and at the termination of the study.

N#Cc1nn(-c2c(Cl)cc(C(F)(F)F)cc2Cl)c(N)c1[S+]([O-])C(F)(F)F (stereo not drawn) [fipronil]
Mean ± SEM survival (days) of P. argentipes larvae during exposure to treated feces D-1 ([1]; 50 ppm): 2.66 ± 0.18 days | Mean ± SEM survival (days) of P. argentipes larvae during exposure to treated feces D-5 ([1]; 50 ppm): 4.03 ± 0.27 days | Mean ± SEM survival (days) of P. argentipes larvae during exposure to treated feces D-10 ([1]; 50 ppm): 4.06 ± 0.29 days | Mean ± SEM survival (days) of P. argentipes larvae during exposure to treated feces D-20 ([1]; 50 ppm): 6.36 ± 0.36 days | Mean ± SEM survival (days) of P. argentipes larvae during exposure to treated feces D-1 ([1]; 100 ppm): 2.23 ± 0.11 days | Mean ± SEM survival (days) of P. argentipes larvae during exposure to treated feces D-5 ([1]; 100 ppm): 3.73 ± 0.23 days | Mean ± SEM survival (days) of P. argentipes larvae during exposure to treated feces D-10 ([1]; 100 ppm): 3.70 ± 0.16 days | Mean ± SEM survival (days) of P. argentipes larvae during exposure to treated feces D-20 ([1]; 100 ppm): 3.82 ± 0.21 days | Mean ± SEM survival (days) of P. argentipes larvae during exposure to treated feces D-1 ([1]; 250 ppm): 3.37 ± 0.20 days | Mean ± SEM survival (days) of P. argentipes larvae during exposure to treated feces D-5 ([1]; 250 ppm): 5.13 ± 0.27 days | Mean ± SEM survival (days) of P. argentipes larvae during exposure to treated feces D-10 ([1]; 250 ppm): 2.28 ± 0.10 days | Mean ± SEM survival (days) of P. argentipes larvae during exposure to treated feces D-20 ([1]; 250 ppm): 2.20 ± 0.10 days | Days of exposure to achieve 100% mortality ([1]; feces 5 days after treatment, 50 ppm): 7 days | Larval mortality ([1]; feces 5 days after treatment, 50 ppm, after 2 days of exposure): 23% | Days of exposure to achieve 100% mortality ([1]; feces 5 days after treatment, 100 ppm): 7 days | Larval mortality ([1]; feces 5 days after treatment, 100 ppm, after 2 days of exposure): 22% | Days of exposure to achieve 100% mortality ([1]; feces 5 days after treatment, 250 ppm): 8 days | Larval mortality ([1]; feces 5 days after treatment, 250 ppm, after 3 days of exposure): 23% | Days of exposure to achieve 100% mortality ([1]; feces 10 days after treatment, 50 ppm): 9 days | Larval mortality ([1]; feces 10 days after treatment, 50 ppm, after 2 days of exposure): 16% | Larval mortality ([1]; feces 10 days after treatment, 50 ppm, after 6 days of exposure): 95% | Days of exposure to achieve 100% mortality ([1]; feces 10 days after treatment, 100 ppm): 5 days | Larval mortality ([1]; feces 10 days after treatment, 100 ppm, after 2 days of exposure): 6% | Days of exposure to achieve 100% mortality ([1]; feces 10 days after treatment, 250 ppm): 4 days | Larval mortality ([1]; feces 10 days after treatment, 250 ppm, after 2 days of exposure): 78% | Days of exposure to achieve 100% mortality ([1]; feces 20 days after treatment, 50 ppm): 10 days | Days of exposure to achieve 100% mortality ([1]; feces 20 days after treatment, 100 ppm): 6 days | Larval mortality ([1]; feces 20 days after treatment, 100 ppm (so in the source), after 3 days of exposure): 7% | Larval mortality ([1]; feces 20 days after treatment, 100 ppm, after 2 days of exposure): 14% | Days of exposure to achieve 100% mortality ([1]; feces 20 days after treatment, 250 ppm): 4 days | Larval mortality ([1]; feces 20 days after treatment, 250 ppm, after 2 days of exposure): 85% | Knockdown of larvae ([1]; feces collected 20 days after the rodents were treated): Quick knockdown | Days of exposure to achieve 100% mortality ([1]; feces day 1 post-treatment, 50 ppm): 5 days | Larval mortality ([1]; feces day 1 post-treatment, 50 ppm, after 1 day of exposure): 4% | Days of exposure to achieve 100% mortality ([1]; feces day 1 post-treatment, 100 ppm): 4 days | Larval mortality ([1]; feces day 1 post-treatment, 100 ppm, after 1 day of exposure): 8% | Days of exposure to achieve 100% mortality ([1]; feces day 1 post-treatment, 250 ppm): 6 days | Larval mortality ([1]; feces day 1 post-treatment, 250 ppm, after 2 days of exposure): 18% | Mortality of bloodfeeding adult P. argentipes (adult P. argentipes; bloodfed on rodents treated as much as 20 days previously, all treatment levels): 100% | Time after 1 hour exposure to 100% mortality of adult P. argentipes (adult P. argentipes; 50 ppm): 5 days | Time after 1 hour exposure to 100% mortality of adult P. argentipes (adult P. argentipes; 100 ppm): 3 days | Time after 1 hour exposure to 100% mortality of adult P. argentipes (adult P. argentipes; 250 ppm): 4 days | Adult sand fly mortality (adult P. argentipes; bloodfeeding on rodents 1 day after treatment): 100% | Adult sand fly mortality (adult P. argentipes; bloodfeeding on rodents 5 days after treatment): 100% | Time to death of adult sand flies (adult P. argentipes; day 1, all treatment groups (50 ppm, 100 ppm, and 250 ppm)): dead by the end of the one hour exposure period | Time to 100% mortality of adult sand flies (adult P. argentipes; day 5, 50 ppm treatment group): 24 h | Time to death of adult sand flies (adult P. argentipes; day 5, 250 and 100 ppm treatment groups): dead by the end of the one hour exposure period | Adverse effect from dosing the cattle [2]: no observed adverse effect
